Data set [1] can be described thus: Susceptibility to enzymatic digestion in simulated intestinal fluid (FIG. 1). The class given is in vitro ADME. Conditions: 37° C., HPLC (FIG. 1). As for the experimental part: Nisin and the compound of compound 1 were tested for their susceptibility towards enzymatic digestion in the intestine using a simulated intestinal fluid (SIF). The SIF was based on the standard USP solutions for simulated intestinal fluids and its activity was confirmed against Bovine Serum Albumin (Hilger et al, Clin. Exp. Immunol. 2001, 123, 387-94). The compounds were incubated in SIF at 37° C. and their concentrations quantified by analytical HPLC (UV detection at 210 nm using the conditions outlined in Table 1).

Data set [2] in a line: Dissolution testing of the capsule of Example 1 in simulated gastric fluid. Format: physicochemical. Particulars: hard gelatine capsule size 00, 50 mg compound 1, 10 mL SGF, 37° C., stirred. As for the experimental part: A hard gelatine capsule (size 00) was opened into two segments and compound 1 (50 mg) was weighed into the larger segment. The capsule segment containing compound 1 was sealed by inserting and closing the smaller segment over the larger capsule section. A hard gelatine capsule (size 00) containing up to 500 mg can be prepared employing this method.
The capsule of Example 1 was dropped into a 10 mL of simulated gastric fluid (SGF) at 37° C. […] Samples of the solution/suspension (100 μL) were withdrawn at 1, 2, 3, 4, 5, 6, 7, 8, 9, 10, 15, 20, 25, 30 and 70 minutes after the addition of the capsule to SGF.
The samples were clarified using a bench top centrifuge to remove solid from the suspension. The clarified supernatants were diluted with 50% ethanol and then were analysed by HPLC.

The nature of data set [3]: Example 2: solubility and dissolution behaviour from hard gelatin capsule in SGF. Format: physicochemical. Particulars: 50 mg in size 00 hard gelatin capsule, 10 mL SGF, 37° C. On the procedure: The solubility and dissolution behaviour of compound 1 contained in a hard gelatin capsule when suspended in simulated gastric fluid (SGF) has been monitored at 37° C.
Compound 1 (50 mg) was transferred into a size 00 hard gelatin capsule. This capsule represents the lowest dose that is likely to be administered in clinical trials. The capsule was dropped into 10 mL of SGF at 37° C. and the sample was intermittently swirled by hand. Dissolution was monitored visually and by HPLC over a one hour period. For the dissolution experiment monitored by HPLC, the sample was stirred continuously with a magnetic stirrer at 37° C. 100 ul samples were withdrawn from the dissolution experiment and were diluted with 900 ul water. The diluted sample was then centrifuged to remove solid material (mostly gelatin).

A short description of data set [4]: Example 3: solubility in SIF and SGF. The class given is physicochemical. Conditions: target 40 mg/ml. On the procedure:
10 mg of compound 1 was suspended in […] Simulated Intestinal Fluid (SIF), and was left on a shaker for 10 minutes, after which time suspension was observed. This was in contrast to an identical sample suspended in SGF which dissolved fully after the same period of time. This sample prepared at a target concentration of 40 mg/ml was centrifuged to remove sediment. The supernatant was then diluted to a target of 1 mg/ml with water and compound 1 content was compared against a 1 mg/mL standard prepared in 50% ethanol (aq) using a HPLC method of Example 2.

A short description of data set [5]: Example 4: stability in SIF over 240 minutes (FIG. 4). The class given is in vitro ADME. Particulars: 37° C., HPLC. On the procedure: Compound 1 was incubated in SIF at 37° C. for up to 240 minutes. Aliquots were withdrawn from the test sample and diluted with water prior to analysis by HPLC (as described in Example 2). The compound 1 peak area was recorded and was expressed as a percentage with respect to the time zero sample.

A further data set deals with C. diff strain 027Can. Briefly: MIC, agar dilution susceptibility testing, C. diff strain 027Can. The class given is cell-based, Clostridium difficile. Particulars: Wilkins-Chalgren Anaerobe agar, anaerobic, 37° C., 48 hours, repeat determinations. As for the experimental part: (§1) Susceptibility testing for Clostridium difficile strains was performed by two-fold serial antibiotic dilutions in Wilkins-Chalgren Anaerobe agar under anaerobic conditions. Vancomycin was included as a comparator drug. C. difficile cultures were inoculated onto pre-reduced Braziers (C.C.E.Y.) agar plates and grown at 37° C. for 48 hours under anaerobic conditions. Two to three colonies of the 48 hours cultures were inoculated into 5 ml of pre-reduced Schaedlers Broth and grown at 37° C. for 24 hours under anaerobic conditions. This culture was diluted with pre-reduced 0.9% NaCl to achieve the turbidity of the 0.5 McFarland standard and applied to the drug containing plates at a final inoculum of 10^5 cfu/spot. Drug-free growth control plates were included. The plates were incubated in the anaerobic chamber at 37° C. for 48 hours and examined for growth.
In general terms: Agar dilution tests growth on a series of plates holding different concentrations.

For a further data set, the system named is C. diff strain 37779. Briefly: MIC, agar dilution susceptibility testing, C. diff strain 37779. Particulars: Wilkins-Chalgren Anaerobe agar, anaerobic, 37° C., 48 hours, repeat determinations. Format: cell-based, Clostridium difficile. As for the experimental part:
as §1

The subject of a further data set is C. diff strain 19126. Briefly: MIC, agar dilution susceptibility testing, C. diff strain 19126. The class given is cell-based, Clostridium difficile. Conditions: Wilkins-Chalgren Anaerobe agar, anaerobic, 37° C., 48 hours, repeat determinations. On the procedure: as §1
A further data set concerns C. diff strain B32. Kind of data set: MIC, agar dilution susceptibility testing, C. diff strain B32. Format: cell-based, Clostridium difficile. Particulars: Wilkins-Chalgren Anaerobe agar, anaerobic, 37° C., 48 hours. On the procedure:
as §1

Another data set concerns C. diff strain E16. Kind of data set: MIC, agar dilution susceptibility testing, C. diff strain E16. Particulars: Wilkins-Chalgren Anaerobe agar, anaerobic, 37° C., 48 hours. Format: cell-based, Clostridium difficile. As for the experimental part: as §1
In the next data set the test system is C. diff strain P24. Briefly: MIC, agar dilution susceptibility testing, C. diff strain P24. Particulars: Wilkins-Chalgren Anaerobe agar, anaerobic, 37° C., 48 hours. The class given is cell-based, Clostridium difficile. On the procedure: as §1
The test system of another data set is C. diff strain 027SM. Briefly: MIC, agar dilution susceptibility testing, C. diff strain 027SM. Particulars: Wilkins-Chalgren Anaerobe agar, anaerobic, 37° C., 48 hours. Format: cell-based, Clostridium difficile. As for the experimental part: as §1
A further data set deals with C. diff strain P62. Briefly: MIC, agar dilution susceptibility testing, C. diff strain P62. The class given is cell-based, Clostridium difficile. Conditions: Wilkins-Chalgren Anaerobe agar, anaerobic, 37° C., 48 hours. On the procedure: as §1
The subject of the next data set is C. diff strain E101. Briefly: MIC, agar dilution susceptibility testing, C. diff strain E101. Format: cell-based, Clostridium difficile. Conditions: Wilkins-Chalgren Anaerobe agar, anaerobic, 37° C., 48 hours. As for the experimental part: as §1
For a further data set, the system named is C. diff strain E4. Kind of data set: MIC, agar dilution susceptibility testing, C. diff strain E4. The class given is cell-based, Clostridium difficile. Conditions: Wilkins-Chalgren Anaerobe agar, anaerobic, 37° C., 48 hours. On the procedure:
as §1

In a further data set the test system is C. diff strain P49. Briefly: MIC, agar dilution susceptibility testing, C. diff strain P49. Format: cell-based, Clostridium difficile. Particulars: Wilkins-Chalgren Anaerobe agar, anaerobic, 37° C., 48 hours. On the procedure: as §1
Another data set has as its system C. diff strain P59. Kind of data set: MIC, agar dilution susceptibility testing, C. diff strain P59. The class given is cell-based, Clostridium difficile. Conditions: Wilkins-Chalgren Anaerobe agar, anaerobic, 37° C., 48 hours. On the procedure:
as §1

The subject of a further data set is C. diff strain 630. Kind of data set: MIC, agar dilution susceptibility testing, C. diff strain 630. Conditions: Wilkins-Chalgren Anaerobe agar, anaerobic, 37° C., 48 hours, repeat determinations. Format: cell-based, Clostridium difficile. On the procedure:
as §1

Converted amounts (≈) assume the structure as drawn. Read-outs that look alike come from different tables or passages of the source. A value given as a limit tells only on which side of the number the result lay.

One may read the solubility as how much of the substance goes into solution per volume. As for `CCC(C)[C@@H]1NC(=O)C2NC(=O)[C@H](CC(C)C)NC(=O)[C@H](NC(=O)[C@H]3CSC[C@H](N)C(=O)N[C@@H](CO)C(=O)NCC(=O)N[C@@H](Cc4c[nH]c5ccccc45)C(=O)N[C@@H](C(C)C)C(=O)N3)[C@H](C)SC[C@H](NC(=O)[C@H](CCC(=O)O)NC1=O)C(=O)NCC(=O)N[C@@H]1C(=O)N[C@@H](CC(C)C)C(=O)N[C@@H](C(C)C)C(=O)N[C@@H](CS[C@H]2C)C(=O)N[C@@H](C)C(=O)N[C@H](C(=O)NCCCCCCCN)CS[C@H]1C` (stereo partly shown) [Compound 1, Deoxyactagardine B (1,7-diaminoheptane) monocarboxamide], the “stability in SIF” value in data set [1] is “essentially stable”. Also, the “time to complete release from the capsule into SGF” value in data set [2] is at most 4 min. For the same molecule, in data set [3], the “dissolution time in SGF” value is at most 3 min and the “time in which the bulk dissolves in SGF” value is “less than 5 minutes”. In [3] (HPLC (FIG. 3)), the “time to reach saturation dissolution in SGF” value turned out to be 3 min. For the same molecule, the solubility at 10 min in data set [4] (SGF, 10 minutes on shaker, read-out: solubility in SGF) amounted to 40 mg/mL (≈ 20.1 mM). The solubility at 10 min in data set [4] (Simulated Intestinal Fluid (SIF), Simulated Intestinal Fluid pH 6.8, 10 minutes on shaker, supernatant by HPLC, read-out: solubility in SIF) is under 0.8 mg/mL. The “peak area as percentage with respect to the time zero sample” value in data set [5] was “no significant reduction”.
As usually defined, the MIC is the smallest concentration in the dilution series that meets the test's criterion for growth inhibition. High values mean a need for much substance, low ones inhibition by little substance. For the molecule “Deoxyactagardine B (1,9-diaminononane) monocarboxamide [Compound 7]”, in the data set on C. diff strain 027Can (listed as Comp 7), the minimum inhibitory concentration (MIC) turned out to be 0.5 µg/mL.
Turning to deoxyactagardine B [DAB], the minimal inhibitory concentration (MIC) stood at 4 µg/mL with C. diff strain 37779; 4 µg/mL in the data set on C. diff strain 19126; 2 µg/mL in the data set with C. diff strain B32; 2 µg/mL against C. diff strain E16; 2 µg/mL with C. diff strain P24; 2 µg/mL against C. diff strain 027SM. The minimum inhibitory concentration (MIC) against C. diff strain P62 worked out at 2 µg/mL; in the data set on C. diff strain E101, 2 µg/mL; with C. diff strain 027Can, 4 µg/mL; with C. diff strain E4 it was 2 µg/mL; in the data set on C. diff strain P49 it was 2 µg/mL; against C. diff strain P59 it was 2 µg/mL. Besides, the minimal inhibitory concentration (MIC) in the data set with C. diff strain 630 is 4 µg/mL.

These data come from US20130171252A1, “Formulation Comprising a Type B Lantibiotic” (NOVACTA […], priority 2010, published 2013).
